Assay results published in PubChem BioAssay (NCI).
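Cells were grown in 96-well plates and exposed to each compound for 48 hours at five concentrations; endpoints were interpolated linearly between bracketing concentrations, or set to the highest concentration if not reached. The concentration for 50% growth inhibition is given as GI50. TGI marks complete inhibition of growth.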

How the values were obtained:
Experiment in all cases: DTP human tumour cell line panel, 48 h
[1] = test system: 786-0 renal
[2] = test system: A498 renal
[3] = test system: A549 NSCLC
[4] = test system: ACHN renal
[5] = test system: BT-549 breast
[6] = test system: CAKI-1 renal
[7] = test system: CCRF-CEM leukemia
[8] = test system: COLO 205 colon
[9] = test system: DU-145 prostate
[10] = test system: EKVX NSCLC
[11] = test system: HCC-2998 colon
[12] = test system: HCT-116 colon
[13] = test system: HCT-15 colon
[14] = test system: HL-60(TB) leukemia
[15] = test system: HOP-62 NSCLC
[16] = test system: HOP-92 NSCLC
[17] = test system: HS 578T breast
[18] = test system: HT29 colon
[19] = test system: IGROV1 ovarian
[20] = test system: K-562 leukemia
[21] = test system: KM12 colon
[22] = test system: LOX IMVI melanoma
[23] = test system: M14 melanoma
[24] = test system: MALME-3M melanoma
[25] = test system: MCF7 breast
[26] = test system: MDA-MB-231 breast
[27] = test system: MDA-MB-435
[28] = test system: MOLT-4 leukemia
[29] = test system: NCI-H226 lung
[30] = test system: NCI-H23 lung
[31] = test system: NCI-H460 lung
[32] = test system: NCI-H522 lung
[33] = test system: NCI/ADR-RES ovarian
[34] = test system: OVCAR-3 ovarian
[35] = test system: OVCAR-4 ovarian
[36] = test system: OVCAR-5 ovarian
[37] = test system: OVCAR-8 ovarian
[38] = test system: PC-3 prostate
[39] = test system: RPMI-8226 leukemia
[40] = test system: RXF 393 renal
[41] = test system: SF-268 CNS
[42] = test system: SF-295 CNS
[43] = test system: SF-539 CNS
[44] = test system: SK-MEL-2 melanoma
[45] = test system: SK-MEL-28 melanoma
[46] = test system: SK-MEL-5 melanoma
[47] = test system: SK-OV-3 ovarian
[48] = test system: SN12C renal
[49] = test system: SNB-19 CNS
[50] = test system: SNB-75 CNS
[51] = test system: SR leukemia
[52] = test system: SW-620 colon
[53] = test system: T-47D breast
[54] = test system: TK-10 renal
[55] = test system: U251 CNS
[56] = test system: UACC-257 melanoma
[57] = test system: UACC-62 melanoma
[58] = test system: UO-31 renal

Structure (SMILES): c1ccc(Cc2nc3ccc(Nc4ncnc5ccccc45)cc3[nH]2)cc1
- GI50 [1]: > 25 µM
- TGI [1]: > 25 µM
- GI50 [2]: 9.41 µM
- TGI [2]: > 25 µM
- GI50 [3]: > 25 µM
- TGI [3]: > 25 µM
- GI50 [4]: 14.8 µM
- TGI [4]: > 25 µM
- GI50 [5]: > 25 µM
- TGI [5]: > 25 µM
- GI50 [6]: 8.34 µM
- TGI [6]: > 25 µM
- GI50 [7]: > 25 µM
- TGI [7]: > 25 µM
- GI50 [8]: > 25 µM
- TGI [8]: > 25 µM
- GI50 [9]: > 25 µM
- TGI [9]: > 25 µM
- GI50 [10]: 9.4 µM
- TGI [10]: > 25 µM
- GI50 [11]: > 25 µM
- TGI [11]: > 25 µM
- GI50 [12]: > 25 µM
- TGI [12]: > 25 µM
- GI50 [13]: > 25 µM
- TGI [13]: > 25 µM
- GI50 [14]: 20 µM
- TGI [14]: > 25 µM
- GI50 [15]: > 25 µM
- TGI [15]: > 25 µM
- GI50 [16]: 9.26 µM
- TGI [16]: > 25 µM
- GI50 [17]: > 25 µM
- TGI [17]: > 25 µM
- GI50 [18]: 9.07 µM
- TGI [18]: > 25 µM
- GI50 [19]: 16.2 µM
- TGI [19]: > 25 µM
- GI50 [20]: > 25 µM
- TGI [20]: > 25 µM
- GI50 [21]: > 25 µM
- TGI [21]: > 25 µM
- GI50 [22]: 17.3 µM
- TGI [22]: > 25 µM
- GI50 [23]: > 25 µM
- TGI [23]: > 25 µM
- GI50 [24]: > 25 µM
- TGI [24]: > 25 µM
- GI50 [25]: > 25 µM
- TGI [25]: > 25 µM
- GI50 [26]: > 25 µM
- TGI [26]: > 25 µM
- GI50 [27]: > 25 µM
- TGI [27]: > 25 µM
- GI50 [28]: > 25 µM
- TGI [28]: > 25 µM
- GI50 [29]: > 25 µM
- TGI [29]: > 25 µM
- GI50 [30]: > 25 µM
- TGI [30]: > 25 µM
- GI50 [31]: > 25 µM
- TGI [31]: > 25 µM
- GI50 [32]: > 15.1 µM
- TGI [32]: > 25 µM
- GI50 [33]: > 25 µM
- TGI [33]: > 25 µM
- GI50 [34]: > 25 µM
- TGI [34]: > 25 µM
- GI50 [35]: > 25 µM
- TGI [35]: > 25 µM
- GI50 [36]: 17.8 µM
- TGI [36]: > 25 µM
- GI50 [37]: > 25 µM
- TGI [37]: > 25 µM
- GI50 [38]: > 25 µM
- TGI [38]: > 25 µM
- GI50 [39]: 16.8 µM
- TGI [39]: > 25 µM
- GI50 [40]: > 25 µM
- TGI [40]: > 25 µM
- GI50 [41]: > 25 µM
- TGI [41]: > 25 µM
- GI50 [42]: > 25 µM
- TGI [42]: > 25 µM
- GI50 [43]: > 25 µM
- TGI [43]: > 25 µM
- GI50 [44]: > 25 µM
- TGI [44]: > 25 µM
- GI50 [45]: > 25 µM
- TGI [45]: > 25 µM
- GI50 [46]: > 25 µM
- TGI [46]: > 25 µM
- GI50 [47]: 7.03 µM
- TGI [47]: > 25 µM
- GI50 [48]: 11.1 µM
- TGI [48]: > 25 µM
- GI50 [49]: > 25 µM
- TGI [49]: > 25 µM
- GI50 [50]: > 25 µM
- TGI [50]: > 25 µM
- GI50 [51]: > 25 µM
- TGI [51]: > 25 µM
- GI50 [52]: > 25 µM
- TGI [52]: > 25 µM
- GI50 [53]: > 25 µM
- TGI [53]: > 25 µM
- GI50 [54]: 5.85 µM
- TGI [54]: > 25 µM
- GI50 [55]: > 25 µM
- TGI [55]: > 25 µM
- GI50 [56]: > 25 µM
- TGI [56]: > 25 µM
- GI50 [57]: > 25 µM
- TGI [57]: > 25 µM
- GI50 [58]: 8.98 µM
- TGI [58]: > 25 µM
